The text below walks through data of patent US7951805B2, “Heterocyclic derivatives and their use as mediators of stearoyl-CoA desaturase” (Xenon Pharmaceuticals Inc., priority 2004, dated 2011).

SMILES strings stand for the structures.

The term melting point denotes the temperature of the solid-liquid transition. In the case of `Cl.O=C(NCCC1CC1)c1ccc(N2CCC(Nc3ccccc3C(F)(F)F)CC2)nn1`, the melting point was 158 to 163 °C. For `Cl.O=C(NCCCC1CC1)c1ccc(N2CCC(Nc3ccccc3C(F)(F)F)CC2)nn1` the value was 117 to 121 °C.

Turning to `Cl.O=C(NCCC1CC1)c1ccc(N2CCC(Nc3ccc(F)cc3C(F)(F)F)CC2)nn1`, the melting point was 134 to 137 °C. The result for `CCCCCNC(=O)c1ccc(N2CCC(Nc3ccc(F)cc3C(F)(F)F)CC2)nn1.Cl` reads 136 to 139 °C; that for `Cl.O=C(NCCCC1CC1)c1ccc(N2CCC(Nc3ccc(F)cc3C(F)(F)F)CC2)nn1`, 143 to 147 °C. `O=C(NCCCC1CC1)c1ccc(N2CCC(N3C(=O)C(F)(F)c4ccccc43)CC2)nn1` came in with a melting point of 51 to 53 °C.
